Source: PubChem BioAssay AID1117356 (Cheminformatics & Chemogenomics Research Group (CCRG), …, 2015)
The source made the active and inactive calls. How the calls were made is not given here.

Target: Receptor-type tyrosine-protein kinase FLT3 (Homo sapiens) (UniProt P36888)
Experiment: inhibitors of Homo sapiens fms-like tyrosine kinase 3, primary HTS, cell-free, LANCE Ultra TR-FRET, NPC library from NCATS (AID 1117356)
Settings: recombinant FLT3, LANCE Ultra TR-FRET kinase assay, stronger effect = higher value

Sequence of Receptor-type tyrosine-protein kinase FLT3 (Homo sapiens) (P36888 whole entry, looked up): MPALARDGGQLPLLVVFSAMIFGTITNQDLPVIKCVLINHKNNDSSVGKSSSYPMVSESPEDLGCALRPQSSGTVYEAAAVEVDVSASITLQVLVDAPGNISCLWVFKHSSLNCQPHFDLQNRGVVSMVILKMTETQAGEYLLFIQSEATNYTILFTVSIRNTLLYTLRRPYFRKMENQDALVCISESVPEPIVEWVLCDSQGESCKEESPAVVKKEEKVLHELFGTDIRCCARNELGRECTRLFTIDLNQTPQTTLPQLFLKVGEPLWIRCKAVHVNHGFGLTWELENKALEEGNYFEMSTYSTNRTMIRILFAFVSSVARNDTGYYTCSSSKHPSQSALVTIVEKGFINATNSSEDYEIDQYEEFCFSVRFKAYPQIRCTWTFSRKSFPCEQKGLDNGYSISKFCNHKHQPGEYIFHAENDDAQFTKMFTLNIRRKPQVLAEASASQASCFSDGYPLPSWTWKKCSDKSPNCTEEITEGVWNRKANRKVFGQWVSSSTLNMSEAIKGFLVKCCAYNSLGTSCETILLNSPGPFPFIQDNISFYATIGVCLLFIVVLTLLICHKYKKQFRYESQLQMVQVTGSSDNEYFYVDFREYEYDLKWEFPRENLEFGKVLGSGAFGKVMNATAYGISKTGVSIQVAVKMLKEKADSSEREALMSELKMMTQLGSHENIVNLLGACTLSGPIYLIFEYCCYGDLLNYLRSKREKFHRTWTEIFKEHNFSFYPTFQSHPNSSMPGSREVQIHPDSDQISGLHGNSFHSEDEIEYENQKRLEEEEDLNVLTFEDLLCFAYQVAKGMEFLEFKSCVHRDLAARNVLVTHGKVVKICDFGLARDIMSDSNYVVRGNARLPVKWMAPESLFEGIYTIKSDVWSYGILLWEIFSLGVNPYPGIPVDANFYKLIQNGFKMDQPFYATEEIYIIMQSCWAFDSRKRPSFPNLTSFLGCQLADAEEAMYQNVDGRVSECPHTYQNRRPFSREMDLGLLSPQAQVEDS

Structure (SMILES)	inhibition (at 20 µM)	inhibition (inhibition, at 0.2 µM) [%]	inhibition (inhibition, at 2 µM) [%]
CCN(CC)CCOc1ccc(/C(=C(\Cl)c2ccccc2)c2ccccc2)cc1	-2.64% (inactive)	-10.4	-9.83
Cc1cc2c(C(C)C)c(O)c(O)c(C=O)c2c(O)c1-c1c(C)cc2c(C(C)C)c(O)c(O)c(C=O)c2c1O	8.28% (inactive)	-0.04	-1.93
CC[C@@]1(O)C(=O)OCc2c1cc1n(c2=O)Cc2c-1nc1ccccc1c2/C=N/OC(C)(C)C	-19.6% (inactive)	-33.4	-2.36
NC(=NCCCCCCN=C(N)/N=C(\N)Nc1ccc(Cl)cc1)/N=C(\N)Nc1ccc(Cl)cc1	10.1% (inactive)	-2.84	22.6
CCCCCCNC(=O)n1cc(F)c(=O)[nH]c1=O	-1.76% (inactive)	-6.64	-7.12
CCCOc1ccc2nc(NC(=O)OC)[nH]c2c1	1.68% (inactive)	-19.3	17
COC(=O)[C@H]1[C@H]2C[C@@H]3c4[nH]c5cc(OC)ccc5c4CCN3C[C@H]2C[C@@H](OC(=O)/C=C/c2ccc(O)c(OC)c2)[C@@H]1OC	-11.1% (inactive)	-33.5	-4.17
Cc1cc(C2CCCCC2)n(O)c(=O)c1	-4.08% (inactive)	-25.7	-3.23
O=C(CCCCCCC(=O)Nc1ccccc1)NO	-5.57% (inactive)	-26.9	8.74
O=c1[nH]c(=O)n([C@H]2C[C@H](O)[C@@H](CO)O2)cc1F	-10.5% (inactive)	-23	4.81
COc1cc(NCc2ccc3nc(N)nc(N)c3c2C)cc(OC)c1OC	-229% (inactive)	-7.18	0.42
COc1cccc2c1C(=O)c1c(O)c3c(c(O)c1C2=O)C[C@@](O)(C(C)=O)C[C@@H]3O[C@H]1C[C@H](N)[C@H](O)[C@H](C)O1	-2.27% (inactive)	0.52	-18.3
Oc1c(Cl)cc(Cl)c2cccnc12	-9.04% (inactive)	-28.1	-0.96
Oc1c(I)cc(I)c2cccnc12	12.8% (inactive)	-23.2	10.1
CN(C)c1ccc2nc3ccc(=[N+](C)C)cc-3sc2c1	-76.3% (inactive)	-18.8	17.2

Next, values leading:

inhibition (at 20 µM)	inhibition (inhibition, at 0.2 µM) [%]	inhibition (inhibition, at 2 µM) [%]	Structure (SMILES)
	-37.7	-20.8	C[n+]1c2cc(N)ccc2cc2ccc(N)cc21 (tested in a mixture with another compound)
8.38% (inactive)	-11.4	11.1	COCc1c(C(C)C)nc(C(C)C)c(/C=C/[C@@H](O)C[C@@H](O)CC(=O)O)c1-c1ccc(F)cc1
99.7%	60.7	97.5	CNC(=O)c1cc(Oc2ccc(NC(=O)Nc3ccc(Cl)c(C(F)(F)F)c3)cc2)ccn1
96.3%	14.3	79.6	C=CC(=O)Nc1cc2c(Nc3ccc(F)c(Cl)c3)ncnc2cc1OCCCN1CCOCC1
-17.5% (inactive)	-18.3	1.39	O=C(NOCC1CC1)c1ccc(F)c(F)c1Nc1ccc(I)cc1Cl
20.7% (inactive)	-4.16	11.9	CCCCc1oc2ccccc2c1C(=O)c1cc(I)c(OCCN(CC)CC)c(I)c1
27.1% (inactive)	-16.8	6.21	CCN(CC)CCNc1ccc(CO)c2sc3ccccc3c(=O)c12
19.6% (inactive)	-17.5	12.3	O=C(Nc1ccc([N+](=O)[O-])cc1Cl)c1cc(Cl)ccc1O
